Laboratory results published in the supplement of paper PMC11208160.

Test: recombinant UMI read abundance after kanamycin selection (control-corrected) (log10(CPM+1)); higher = more efficient recombination; extreme values may be limits of the assay; sequences stand for … in AGTGCAGAGAAAATCGGCCAGTTTTCTCTGCCTGCAGTCCGCATGCCGTGGGACCCCTTGGGTTCTAACCTGTTGCCTAGATTTATGCAGCGGACTGCCTTTCTCCCAAAGTGATAAACCGG…AGGTTGGTTTCACT; site = the 11-nt donor
Method in brief: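 Reported values are log10(CPM+1) from a pooled Escherichia coli screen of donor and donor-binding-loop pairs for the IS621 bridge recombinase. Selection used IPTG (0.07 mM) plus kanamycin, against unselected plating, each in two replicates. Recombinant UMIs were amplified across the donor–target junction, sequenced, converted to CPM, averaged over replicates and scaled by control-derived factors.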
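Also: IS621 bridge recombinase in Escherichia coli cells against a fixed T5 target plasmid.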

Sequence	recombinant UMI read abundance (log10)
GGGCCAACATGGACCGGTTTTCCCGGTAATCCGTATTTGTG (site GGGCCAACTCA)	0
CTTGTGGCATGGACCGGTTTTCCCGGTAATCCGTATTTGGA (site CTTGTGGCTTC)	0.306
AGCCTTTCATGGACCGGTTTTCCCGGTAATCCGTATTTGTC (site AGCCTTTCTGA)	0
ACTCAAGCATGGACCGGTTTTCCCGGTAATCCGTATTTGCA (site ACTCAAGCTTG)	2.26
CAGTCGCCATGGACCGGTTTTCCCGGTAATCCGTATTTGGG (site CAGTCGGCTCC)	0.0208
CTTCTTTCATGGACCGGTTTTCCCGGTAATCCGTATTTGAC (site CTTCTTTCTGT)	0
TTGCATGCATGGACCGGTTTTCCCGGTAATCCGTATTTGGT (site CTGCATGCTAC)	0.00328
GTATACACATGGACCGGTTTTCCCGGTAATCCGTATTTGTA (site GTATACACTTA)	2.12
TCATCAACATGGACCGGTTTTCCCGGTAATCCGTATTTGGT (site TCATCAACTAC)	0.0136
CAATGCTCATGGACCGGTTTTCCCGGTAATCCGTATTTGAA (site CAATGCCCTTT)	1.25
AGAAATGCATGGACCGGTTTTCCCGGTAATCCGTATTTGCT (site AGAAACGCTAG)	1.8
TAAGACACATGGACCGGTTTTCCCGGTAATCCGTATTTGTT (site TAAGACACTAA)	1.94
CTTTACGCATGGACCGGTTTTCCCGGTAATCCGTATTTGTT (site CTTTACGCTAA)	0.6
TGGCCAGCATGGACCGGTTTTCCCGGTAATCCGTATTTGGC (site TGGCCAGCTGC)	0
GCCGAACCATGGACCGGTTTTCCCGGTAATCCGTATTTGGG (site GCCGAACCTCC)	0.0289
CCACGAACATGGACCGGTTTTCCCGGTAATCCGTATTTGTC (site ACACGAACTGA)	0
GGTCCAACATGGACCGGTTTTCCCGGTAATCCGTATTTGTA (site GGTCCTACTTA)	0.00929
ACGTCTACATGGACCGGTTTTCCCGGTAATCCGTATTTGTG (site ACCTCTACTCA)	0.39
CGGACTCCATGGACCGGTTTTCCCGGTAATCCGTATTTGTT (site CGGAATCCTAA)	0.00938

Sequence	recombinant UMI read abundance (log10)
TTACGCTCATGGACCGGTTTTCCCGGTAATCCGTATTTGAT (site TTACGCTCTAT)	1.93
GACAAACCATGGACCGGTTTTCCCGGTAATCCGTATTTGGT (site GAAAAACCTAC)	0
AGGATCCCATGGACCGGTTTTCCCGGTAATCCGTATTTGTG (site AGGCTCCCTCA)	0.00372
CGGAAGACATGGACCGGTTTTCCCGGTAATCCGTATTTGCC (site CGGAAGACTGG)	2.59
CGGTTGGCATGGACCGGTTTTCCCGGTAATCCGTATTTGCT (site CGATTGGCTAG)	0.3
GTGAATGCATGGACCGGTTTTCCCGGTAATCCGTATTTGGT (site GTGGATGCTAC)	1.94
CGGGCACCATGGACCGGTTTTCCCGGTAATCCGTATTTGAT (site CGGGTACCTAT)	0
CCCGGTTCATGGACCGGTTTTCCCGGTAATCCGTATTTGCA (site CCCGGTACTTG)	0
TCCGGTGCATGGACCGGTTTTCCCGGTAATCCGTATTTGCC (site TCCGGTGCTGG)	0
GGTGAGGCATGGACCGGTTTTCCCGGTAATCCGTATTTGGT (site GGTGAGGCTAC)	1.1
ATCTGGGCATGGACCGGTTTTCCCGGTAATCCGTATTTGGT (site ATCTGGGCTAC)	0.162
GGTTCCCCATGGACCGGTTTTCCCGGTAATCCGTATTTGTA (site GGTTCCCCTTA)	0.0107
AACTCCTCATGGACCGGTTTTCCCGGTAATCCGTATTTGCC (site AACTCCTCTGG)	1.8
TAATTAGCATGGACCGGTTTTCCCGGTAATCCGTATTTGGG (site TAATGAGCTCC)	0.0311
CTGGTAGCATGGACCGGTTTTCCCGGTAATCCGTATTTGAC (site CTAGTATCTGT)	1.68
AACCGTCCATGGACCGGTTTTCCCGGTAATCCGTATTTGAT (site TACCGTCCTAT)	0.0405
AAGCGTCCATGGACCGGTTTTCCCGGTAATCCGTATTTGCG (site AAGCGTCCTCG)	1.06
ACCGTATCATGGACCGGTTTTCCCGGTAATCCGTATTTGCA (site ACCGTATCTTG)	2.45
CGAAAGGCATGGACCGGTTTTCCCGGTAATCCGTATTTGCT (site CGAAAGGCTAG)	2.39

Sequence	recombinant UMI read abundance (log10)
GTTAGAACATGGACCGGTTTTCCCGGTAATCCGTATTTGGC (site GTTAGAACTGG)	0
CGGGATCCATGGACCGGTTTTCCCGGTAATCCGTATTTGTT (site CGGCATCCTAA)	0.02
TAAAGTGCATGGACCGGTTTTCCCGGTAATCCGTATTTGTA (site TAAAGTCCTTA)	0.72
AGTAGTGCATGGACCGGTTTTCCCGGTAATCCGTATTTGGT (site ATTAGTGCTAC)	0.00696
ACACGACCATGGACCGGTTTTCCCGGTAATCCGTATTTGTC (site ACACGACCTGA)	0
TAATAAGCATGGACCGGTTTTCCCGGTAATCCGTATTTGGG (site TAATAAGCTCC)	0.013
AATGCGTCATGGACCGGTTTTCCCGGTAATCCGTATTTGAC (site AATGAGTCTGT)	0
CCGTTAGCATGGACCGGTTTTCCCGGTAATCCGTATTTGCG (site CCGTTAGCTCC)	0
TAGAATACATGGACCGGTTTTCCCGGTAATCCGTATTTGCA (site TAGAATACTTC)	0.0185
AATTATGCATGGACCGGTTTTCCCGGTAATCCGTATTTGGA (site AATTATGCTGC)	0
CAAGCGCCATGGACCGGTTTTCCCGGTAATCCGTATTTGTG (site CAAGCGCCTCA)	0.0111
AAGTATGCATGGACCGGTTTTCCCGGTAATCCGTATTTGGA (site AATTATGCTTC)	1.04
CGTTTGGCATGGACCGGTTTTCCCGGTAATCCGTATTTGCT (site CGCTTGGCTAG)	0
CGTTAGTCATGGACCGGTTTTCCCGGTAATCCGTATTTGAG (site CGTTAGACTCT)	0.0321
ATGTTGGCATGGACCGGTTTTCCCGGTAATCCGTATTTGGC (site ATGTTGGCTGC)	2.68
CAAGCGCCATGGACCGGTTTTCCCGGTAATCCGTATTTGTG (site CCAGCGCCTCA)	0.00697
CCCTACTCATGGACCGGTTTTCCCGGTAATCCGTATTTGGG (site CCCTCCTCTCC)	0.00345
AGGTAGACATGGACCGGTTTTCCCGGTAATCCGTATTTGAA (site AGGAAGACTTG)	0
AGAAACACATGGACCGGTTTTCCCGGTAATCCGTATTTGTC (site AGAAACACTGA)	2.8
